Test results as given in ChEMBL document CHEMBL1275576, “In vitro activity of tomopenem (CS-023/RO4908463) against anaerobic bacteria” (Antimicrob Agents Chemother, 2009).

How the values were obtained:
[1] = tested on: Limosilactobacillus reuteri; test: Antimicrobial activity against Lactobacillus reuteri JCM 1112 by agar dilution method in presence of 5% laked sheep blood; format: functional
[2] = Antimicrobial activity against Bifidobacterium longum subsp. longum ATCC 15707 by agar dilution method in presence of 5% laked sheep blood; format: functional
Lacticaseibacillus casei = test: Antimicrobial activity against Lactobacillus casei subsp. casei JCM 1134 by agar dilution method in presence of 5% laked sheep blood; format: functional
Prevotella bivia = test: Antimicrobial activity against Prevotella bivia ATCC 29303 by agar dilution method in presence of 5% laked sheep blood; format: functional; conditions: DSM 20514
Bacteroides fragilis [3] = test: Antimicrobial activity against Bacteroides fragilis GAI 10150 by agar dilution method in presence of 5% laked sheep blood; format: functional
[4] = tested on: Enterocloster clostridioformis; test: Antimicrobial activity against Clostridium clostridioforme NCTC 11224 by agar dilution method in presence of 5% laked sheep blood; format: functional
Clostridium septicum = test: Antimicrobial activity against Clostridium septicum ATCC 12464 by agar dilution method in presence of 5% laked sheep blood; format: functional
[5] = tested on: Lactobacillus acidophilus; test: Antimicrobial activity against Lactobacillus acidophilus JCM 1132 by agar dilution method in presence of 5% laked sheep blood; format: functional
Gemella morbillorum = test: Antimicrobial activity against Gemella morbillorum ATCC 27824 by agar dilution method in presence of 5% laked sheep blood; format: functional
Bifidobacterium breve = test: Antimicrobial activity against Bifidobacterium breve ATCC 15700 by agar dilution method in presence of 5% laked sheep blood; format: functional
Bacteroides fragilis [6] = test: Antimicrobial activity against Bacteroides fragilis GAI 0558 by agar dilution method in presence of 5% laked sheep blood; format: functional
[7] = tested on: Bacteroides thetaiotaomicron; test: Antimicrobial activity against Bacteroides thetaiotaomicron ATCC 29741 by agar dilution method in presence of 5% laked sheep blood; format: functional
[8] = tested on: Streptococcus constellatus; test: Antimicrobial activity against Streptococcus constellatus ATCC 27923 by agar dilution method in presence of 5% laked sheep blood; format: functional
[9] = tested on: Staphylococcus saccharolyticus; test: Antimicrobial activity against Staphylococcus saccharolyticus ATCC 14953 by agar dilution method in presence of 5% laked sheep blood; format: functional
Thomasclavelia ramosa = test: Antimicrobial activity against Clostridium ramosum ATCC 25582 by agar dilution method in presence of 5% laked sheep blood; format: functional
[10] = tested on: Campylobacter ureolyticus; test: Antimicrobial activity against Bacteroides ureolyticus NCTC 10941 by agar dilution method in presence of 5% laked sheep blood; format: functional
Bilophila wadsworthia = test: Antimicrobial activity against Bilophila wadsworthia WAL 7959 by agar dilution method in presence of 5% laked sheep blood; format: functional
[11] = Antimicrobial activity against Desulfovibrio piger DSM 749 by agar dilution method in presence of 5% laked sheep blood; format: functional, Desulfovibrio piger ATCC 29098
Bacteroides ovatus = test: Antimicrobial activity against Bacteroides ovatus ATCC 8483 by agar dilution method in presence of 5% laked sheep blood; format: functional
Prevotella oris = test: Antimicrobial activity against Prevotella oris ATCC 33573 by agar dilution method in presence of 5% laked sheep blood; format: functional; conditions: Segatella oris
Bacteroides fragilis [12] = test: Antimicrobial activity against Bacteroides fragilis NCTC 10581 by agar dilution method in presence of 5% laked sheep blood; format: functional
Hoylesella oralis = test: Antimicrobial activity against Prevotella oralis ATCC 33269 by agar dilution method in presence of 5% laked sheep blood; format: functional
Prevotella intermedia = test: Antimicrobial activity against Prevotella intermedia ATCC 25611 by agar dilution method in presence of 5% laked sheep blood; format: functional
Veillonella parvula = test: Antimicrobial activity against Veillonella parvula ATCC 10790 by agar dilution method in presence of 5% laked sheep blood; format: functional
Cutibacterium acnes = test: Antimicrobial activity against Propionibacterium acnes ATCC 11828 by agar dilution method in presence of 5% laked sheep blood; format: functional
Bacteroides fragilis [13] = test: Antimicrobial activity against carbapenemase-producing Bacteroides fragilis GAI 30144 by agar dilution method in presence of 5% laked sheep blood; format: functional
Clostridioides difficile = test: Antimicrobial activity against Clostridium difficile GAI 10029 by agar dilution method in presence of 5% laked sheep blood; format: functional
Capnocytophaga ochracea = test: Antimicrobial activity against Capnocytophaga ochracea GAI 5586 by agar dilution method in presence of 5% laked sheep blood; format: functional
Prevotella denticola = test: Antimicrobial activity against Prevotella denticola GAI 5490 by agar dilution method in presence of 5% laked sheep blood; format: functional
[14] = tested on: Streptococcus intermedius; test: Antimicrobial activity against Streptococcus intermedius ATCC 27335 by agar dilution method in presence of 5% laked sheep blood; format: functional
[15] = tested on: Fusobacterium necrophorum; test: Antimicrobial activity against Fusobacterium necrophorum ATCC 25286 by agar dilution method in presence of 5% laked sheep blood; format: functional
Prevotella corporis = test: Antimicrobial activity against Prevotella corporis GAI 91000 by agar dilution method in presence of 5% laked sheep blood; format: functional
[16] = tested on: Bacteroides eggerthii DSM 20697; test: Antimicrobial activity against Bacteroides eggerthii ATCC 27754 by agar dilution method in presence of 5% laked sheep blood; format: functional
Fusobacterium varium = test: Antimicrobial activity against Fusobacterium varium ATCC 8501 by agar dilution method in presence of 5% laked sheep blood; format: functional
Bacteroides fragilis [17] = test: Antimicrobial activity against Bacteroides fragilis GAI 7955 by agar dilution method in presence of 5% laked sheep blood; format: functional
Campylobacter gracilis = test: Antimicrobial activity against Campylobacter gracilis JCM 8538 by agar dilution method in presence of 5% laked sheep blood; format: functional
Bacteroides uniformis = test: Antimicrobial activity against Bacteroides uniformis ATCC 8492 by agar dilution method in presence of 5% laked sheep blood; format: functional
Parvimonas micra = test: Antimicrobial activity against Parvimonas micra VPI 5464-1 by agar dilution method in presence of 5% laked sheep blood; format: functional
[18] = Antimicrobial activity against Parabacteroides distasonis ATCC 8503 by agar dilution method in presence of 5% laked sheep blood; format: functional
[19] = tested on: Bacteroides heparinolyticus; test: Antimicrobial activity against Prevotella heparinolytica ATCC 35895 by agar dilution method in presence of 5% laked sheep blood; format: functional
[20] = tested on: Propionibacterium granulosum; test: Antimicrobial activity against Propionibacterium granulosum ATCC 25564 by agar dilution method in presence of 5% laked sheep blood; format: functional; conditions: Cutibacterium granulosum
Lactobacillus salivarius = test: Antimicrobial activity against Lactobacillus salivarius subsp. salivarius JCM 1231 by agar dilution method in presence of 5% laked sheep blood; format: functional; conditions: Ligilactobacillus salivarius
[21] = tested on: Desulfovibrio desulfuricans; test: Antimicrobial activity against Desulfovibrio desulfuricans ATCC 29577 by agar dilution method in presence of 5% laked sheep blood; format: functional
Schaalia odontolytica = test: Antimicrobial activity against Actinomyces odontolyticus GAI 91002 by agar dilution method in presence of 5% laked sheep blood; format: functional
[22] = tested on: Lactiplantibacillus plantarum; test: Antimicrobial activity against Lactobacillus plantarum JCM 1149 by agar dilution method in presence of 5% laked sheep blood; format: functional
Eggerthella lenta = test: Antimicrobial activity against Eggerthella lenta ATCC 25559 by agar dilution method in presence of 5% laked sheep blood; format: functional
Bifidobacterium bifidum = test: Antimicrobial activity against Bifidobacterium bifidum JCM 1255 by agar dilution method in presence of 5% laked sheep blood; format: functional

## C[C@@H](O)[C@H]1C(=O)N2C(C(=O)O)=C(S[C@H]3C[C@@H](C(=O)N4CC[C@H](NC(=O)CNC(=N)N)C4)N(C)C3)[C@H](C)[C@H]12 [TOMOPENEM]
[1]
  MIC: 0.125 µg/mL
[2]
  MIC: 0.5 µg/mL
Lacticaseibacillus casei
  MIC: 1 µg/mL
Prevotella bivia
  MIC: 0.5 µg/mL
Bacteroides fragilis [3]
  MIC: 4 µg/mL
[4]
  MIC: 0.03 µg/mL
Clostridium septicum
  MIC: 0.03 µg/mL
[5]
  MIC: 0.25 µg/mL
Gemella morbillorum
  MIC: 0.03 µg/mL
Bifidobacterium breve
  MIC: 1 µg/mL
Bacteroides fragilis [6]
  MIC: 1 µg/mL
[7]
  MIC: 0.5 µg/mL
[8]
  MIC: 0.25 µg/mL
[9]
  MIC: 0.06 µg/mL
Thomasclavelia ramosa
  MIC: 0.5 µg/mL
[10]
  MIC: 0.03 µg/mL
Bilophila wadsworthia
  MIC: 0.125 µg/mL
[11]
  MIC: 0.03 µg/mL
Bacteroides ovatus
  MIC: 0.5 µg/mL
Prevotella oris
  MIC: 0.125 µg/mL
Bacteroides fragilis [12]
  MIC: 0.125 µg/mL
Hoylesella oralis
  MIC: 0.06 µg/mL
Prevotella intermedia
  MIC: 0.06 µg/mL
Veillonella parvula
  MIC: 0.03 µg/mL
Cutibacterium acnes
  MIC: 1 µg/mL
Bacteroides fragilis [13]
  MIC: > 128 µg/mL
Clostridioides difficile
  MIC: 2 µg/mL
Capnocytophaga ochracea
  MIC: 0.06 µg/mL
Prevotella denticola
  MIC: 0.06 µg/mL
[14]
  MIC: 0.125 µg/mL
[15]
  MIC: ≤ 0.015 µg/mL
Prevotella corporis
  MIC: 0.06 µg/mL
[16]
  MIC: 0.125 µg/mL
Fusobacterium varium
  MIC: 0.5 µg/mL
Bacteroides fragilis [17]
  MIC: 4 µg/mL
Campylobacter gracilis
  MIC: 0.06 µg/mL
Bacteroides uniformis
  MIC: 0.25 µg/mL
Parvimonas micra
  MIC: 0.125 µg/mL
[18]
  MIC: 0.25 µg/mL
[19]
  MIC: 0.125 µg/mL
[20]
  MIC: 0.5 µg/mL
Lactobacillus salivarius
  MIC: 0.5 µg/mL
[21]
  MIC: 0.25 µg/mL
Schaalia odontolytica
  MIC: 0.5 µg/mL
[22]
  MIC: 0.06 µg/mL
Eggerthella lenta
  MIC: 0.5 µg/mL
Bifidobacterium bifidum
  MIC: 0.06 µg/mL
